Patent US9540343B2 (Gilead Sciences, Inc., priority 2011, dated 2017)

Tests used:
[1] = tested on: HIV-IIIb; assay: Test A: Antiviral assay in MT4 cells; type: cell-based, HIV-1; conditions: Human immunodeficiency virus 1, IIIB, MT4, 120 h, read-out: % inhibition at 2 μM, percent inhibition of virus-induced cell killing, from dose response curve at 2 uM drug; MT-4 cells infected with HIV-IIIb, 5 days, CellTiter-Glo
[2] = in vitro; conditions: human, uninfected MT-4 cells, CC50 (nM), same protocol as Test A, CellTiter-Glo
Outline: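 Cytoprotection read-out: CellTiter-Glo chemiluminescence after 5 days at 37 °C of HIV-IIIb-infected MT-4 cells (m.o.i. 0.003) with compound in 10-point 3-fold dilutions, quadruplicate, 10% FBS. Cytotoxicity (CC50) measured identically without virus.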

| SMILES | inhibition at 2 µM [1] | CC50 at 5 days [2] |
| --- | --- | --- |
| NC(=O)c1cc(-c2cccnc2[C@H](Cc2cc(F)cc(F)c2)NC(=O)Cn2cc(C(=O)O)c(C(F)(F)F)n2)ccc1F [Example 323, (S)-1-(2-(1-(3-(3-carbamoyl-4-fluorophenyl)pyridin-2-yl)-2-(3,5-difluorophenyl)ethylamino)-2-oxoethyl)-3-(trifluoromethyl)-1H-pyrazole-4-carboxylic acid] | 0% | > 53200 nM |
| CN1CCc2c(c(C(F)(F)F)nn2CC(=O)N[C@@H](Cc2cc(F)cc(F)c2)c2ncccc2-c2ccc(F)c(C(N)=O)c2)C1 [Example 324, (S)-5-(2-(2-(3,5-difluorophenyl)-1-(2-(5-methyl-3-(trifluoromethyl)-4,5,6,7-tetrahydro-1H-pyrazolo[4,3-c]pyridin-1-yl)acetamido)ethyl)pyridin-3-yl)-2-fluorobenzamide] | 31% | > 53200 nM |
| NC(=O)c1cc(-c2cccnc2[C@H](Cc2cc(F)cc(F)c2)NC(=O)Cn2nc(C(F)(F)F)c3c2CC(O)CC3)ccc1F (stereo partly drawn) [Example 325, 5-(2-((1S)-2-(3,5-difluorophenyl)-1-(2-(6-hydroxy-3-(trifluoromethyl)-4,5,6,7-tetrahydro-1H-indazol-1-yl)acetamido)ethyl)pyridin-3-yl)-2-fluorobenzamide] | 86% | 46100 nM |
| NC(=O)c1cc(-c2cccnc2[C@H](Cc2cccc(F)c2)NC(=O)Cn2c(=O)[nH]c3ccccc32)ccc1F [Example 326, (S)-2-fluoro-5-(2-(2-(3-fluorophenyl)-1-(2-(2-oxo-2,3-dihydro-1H-benzo[d]imidazol-1-yl)acetamido)ethyl)pyridin-3-yl)benzamide] | 27% | > 53200 nM |
| NC(=O)c1cccc(-c2cncnc2[C@H](Cc2cc(F)cc(F)c2)NC(=O)Cc2c[nH]c3ccc(O)cc23)c1 [Example 327, (S)-3-(4-(2-(3,5-difluorophenyl)-1-(2-(5-hydroxy-1H-indol-3-yl)acetamido)ethyl)pyrimidin-5-yl)benzamide] | 94% | > 53200 nM |
| O=C(Cc1c[nH]c2ccc(F)cc12)NC(Cc1cc(F)cc(F)c1)c1nc[nH]c(=O)c1-c1ccc(Cl)cc1 (centres unmarked) [Example 328, N-(1-(5-(4-chlorophenyl)-6-oxo-1,6-dihydropyrimidin-4-yl)-2-(3,5-difluorophenyl)ethyl)-2-(5-fluoro-1H-indol-3-yl)acetamide] | 0% | 10000 nM |
| CCOCc1cn(CC(=O)N[C@@H](Cc2cc(F)cc(F)c2)c2ncccc2-c2ccc(F)c(C(N)=O)c2)nc1C(F)(F)F [Example 330, (S)-5-(2-(2-(3,5-difluorophenyl)-1-(2-(4-(ethoxymethyl)-3-(trifluoromethyl)-1H-pyrazol-1-yl)acetamido)ethyl)pyridin-3-yl)-2-fluorobenzamide] | 3% | 29300 nM |
| O=C(Cc1c[nH]c2ccc(=O)[nH]c12)N[C@@H](Cc1cc(F)cc(F)c1)c1ncncc1-c1ccc(Cl)cc1 [Example 331B, (S)—N-(1-(5-(4-chlorophenyl)pyrimidin-4-yl)-2-(3,5-difluorophenyl)ethyl)-2-(5-oxo-4,5-dihydro-1H-pyrrolo[3,2-b]pyridin-3-yl)acetamide] | 99% | 43100 nM |
| NC(=O)c1cc(-c2cccnc2[C@H](Cc2cc(F)cc(F)c2)NC(=O)COc2ccnc(Cl)c2)ccc1F [Example 332B, (S)-5-(2-(1-(2-(2-chloropyridin-4-yloxy)acetamido)-2-(3,5-difluorophenyl)ethyl)pyridin-3-yl)-2-fluorobenzamide] | 2% | 40000 nM |
| CNCc1cn(CC(=O)N[C@@H](Cc2cc(F)cc(F)c2)c2ncccc2-c2ccc(F)c(C(N)=O)c2)nc1C(F)(F)F [Example 333, (S)-5-(2-(2-(3,5-difluorophenyl)-1-(2-(4-((methylamino)methyl)-3-(trifluoromethyl)-1H-pyrazol-1-yl)acetamido)ethyl)pyridin-3-yl)-2-fluorobenzamide] | 2% | > 53200 nM |
